Columns and labels:
Type in all cases: functional
U-251 = assay: Antiproliferative activity against human U251 cells assessed as growth inhibition after 48 hrs by sulforhodamine B assay; settings: U-251, 48 h
[1] = Antiproliferative activity against human UACC61 cells assessed as growth inhibition after 48 hrs by sulforhodamine B assay
MCF7 = assay: Antiproliferative activity against human MCF7 cells assessed as growth inhibition after 48 hrs by sulforhodamine B assay; settings: MCF7, 48 h
NCI/ADR-RES = assay: Antiproliferative activity against human NCI-ADR-RES cells assessed as growth inhibition after 48 hrs by sulforhodamine B assay
786-0 = assay: Antiproliferative activity against human 786-0 cells assessed as growth inhibition after 48 hrs by sulforhodamine B assay; settings: 786-0, 48 h
NCI-H460 = assay: Antiproliferative activity against human NCI-H460 cells assessed as growth inhibition after 48 hrs by sulforhodamine B assay; settings: NCI-H460, 48 h
PC-3 = assay: Antiproliferative activity against human PC3 cells assessed as growth inhibition after 48 hrs by sulforhodamine B assay; settings: PC-3, 48 h
OVCAR-3 = assay: Antiproliferative activity against human OVCAR3 cells assessed as growth inhibition after 48 hrs by sulforhodamine B assay; settings: OVCAR-3, 48 h
HT-29 = assay: Antiproliferative activity against human HT-29 cells assessed as growth inhibition after 48 hrs by sulforhodamine B assay; settings: HT-29, 48 h
K562 = assay: Antiproliferative activity against human K562 cells assessed as growth inhibition after 48 hrs by sulforhodamine B assay; settings: K562, 48 h

| SMILES | GI50 (U-251) | GI50 [1] | GI50 (MCF7) | GI50 (NCI/ADR-RES) | GI50 (786-0) | GI50 (NCI-H460) | GI50 (PC-3) | GI50 (OVCAR-3) | GI50 (HT-29) | GI50 (K562) |
| --- | --- | --- | --- | --- | --- | --- | --- | --- | --- | --- |
| CCOC(=O)c1cc2c([nH]c3ccc(OC)cc32)c(-c2ccc(N(C)C)cc2)n1 | 0.95 µM | 0.28 µM | > 100 µM | 4.29 µM | 1.4 µM | 12.7 µM | 7.74 µM | > 100 µM | > 100 µM | > 100 µM |
| Fc1ccc(-c2nc(-c3nnn[nH]3)cc3c2[nH]c2ccccc23)cc1 | 8.17 µM | 63.3 µM | 10.1 µM | 36.6 µM | 64.5 µM | 14.8 µM | 71.8 µM | 0.27 µM | 25.6 µM | 10.7 µM |
| CCOC(=O)c1cc2c([nH]c3ccc(C)cc32)c(-c2ccccc2)n1 | 7.44 µM | 28.2 µM | 5.08 µM | 2.66 µM | 10.8 µM | 6.96 µM | 20.6 µM | 0.6 µM | 7.14 µM | 1.24 µM |
| COC(=O)c1cc2c([nH]c3ccccc32)c(-c2ccc(N(C)C)cc2)n1 |  | 3.61 µM | 36.8 µM | 11.6 µM | 20.4 µM | 15.3 µM | 9.56 µM | 28.4 µM | 34 µM | 21.8 µM |
| COC(=O)c1cc2c([nH]c3ccccc32)c(-c2ccc(O)cc2)n1 |  | 12 µM | 27.5 µM | 25.7 µM | 29.5 µM | 28.5 µM | 20.7 µM | 21.1 µM | 25.1 µM | > 100 µM |
| CCOC(=O)c1cc2c([nH]c3ccc(C)cc32)c(-c2ccc(OC)cc2)n1 | 7.07 µM | 23.3 µM | 32.2 µM | 41.6 µM | 4.27 µM | 11.6 µM | > 100 µM | 0.61 µM | 80.1 µM | 25.1 µM |
| CCOC(=O)c1cc2c([nH]c3ccc(OC)cc32)c(-c2ccc(OC)cc2)n1 | 70.8 µM | > 100 µM | > 100 µM | > 100 µM | 20.9 µM | 74.8 µM | > 100 µM | > 100 µM | > 100 µM | > 100 µM |
| COC(=O)c1cc2c([nH]c3ccccc32)c(-c2ccc(OC)cc2)n1 |  | 2.61 µM | 52.7 µM | 1.11 µM | 32.7 µM | 0.38 µM | 10.2 µM | 39.4 µM | 24.8 µM | 0.04 µM |
| COc1ccc(-c2nc(-c3nnnn3Cc3ccccc3)cc3c2[nH]c2ccccc23)cc1 | 3.82 µM | 88.1 µM | 1.32 µM | 2.7 µM | 2.17 µM | 1.59 µM | 5.73 µM | 1.62 µM | 18.3 µM | 7.14 µM |
| COc1cccc2c1C(=O)c1c(O)c3c(c(O)c1C2=O)C[C@@](O)(C(=O)CO)C[C@@H]3O[C@H]1C[C@H](N)[C@H](O)[C@H](C)O1 [DOXORUBICIN] | 0.21 µM | 0.047 µM | 0.073 µM | 1.44 µM | 0.15 µM | 0.37 µM | 0.74 µM | 0.0087 µM | 2.58 µM | 1.11 µM |
| COC(=O)c1cc2c([nH]c3ccccc32)c(-c2ccccc2Cl)n1 |  | 5.76 µM | 36.4 µM | 27.6 µM | 42.4 µM | 26.8 µM | 22.3 µM | 21.6 µM | 25.3 µM | 13.5 µM |
| COC(=O)c1cc2c([nH]c3ccccc32)c(-c2cccc([N+](=O)[O-])c2)n1 |  | 7.02 µM | > 100 µM | > 100 µM | 31.7 µM | > 100 µM | > 100 µM | > 100 µM | > 100 µM | 3.05 µM |
| CCOC(=O)c1cc2c([nH]c3ccc(OC)cc32)c(-c2ccccc2)n1 | > 100 µM | > 100 µM | 79.6 µM | > 100 µM | > 100 µM | > 100 µM | > 100 µM | > 100 µM | > 100 µM | > 100 µM |
| CCOC(=O)c1cc2c([nH]c3ccc(OC)cc32)c(-c2ccc(O)cc2)n1 | 7.26 µM | > 100 µM | 6.57 µM | 6.54 µM | 7.51 µM | 6.95 µM | 3.28 µM | 0.66 µM | 7.74 µM | 4.36 µM |
| Fc1ccc(-c2nc(-c3nnnn3Cc3ccccc3)cc3c2[nH]c2ccccc23)cc1 | 1.38 µM | > 100 µM | 1.04 µM | 2.07 µM | 0.69 µM | 20.2 µM | 6.11 µM | 0.57 µM | 6.51 µM | 0.69 µM |
| COC(=O)c1cc2c([nH]c3ccccc32)c(-c2ccccc2)n1 |  | 5.45 µM | > 100 µM | > 100 µM | > 100 µM | > 100 µM | > 100 µM | > 100 µM | > 100 µM | > 100 µM |
| c1ccc(Cn2nnnc2-c2cc3c([nH]c4ccccc43)c(-c3ccccc3)n2)cc1 | 63.5 µM | 37 µM | 4.4 µM | 71 µM | 70.6 µM | 31.9 µM | > 100 µM | > 100 µM | > 100 µM | 27.4 µM |
| CCOC(=O)c1cc2c([nH]c3ccc(OC)cc32)c(-c2cccc([N+](=O)[O-])c2)n1 | > 100 µM | 19.7 µM | > 100 µM | > 100 µM | > 100 µM | > 100 µM | > 100 µM | > 100 µM | > 100 µM | > 100 µM |
| CCOC(=O)c1cc2c([nH]c3ccc(OC)cc32)c(-c2ccccc2Cl)n1 | 22.1 µM | 7.71 µM | > 100 µM | > 100 µM | 12.2 µM | 65.6 µM | > 100 µM | > 100 µM | > 100 µM | > 100 µM |

From ChEMBL document CHEMBL4351004, “New 3-tetrazolyl-β-carbolines and β-carboline-3-carboxylates with anti-cancer activity” (2019)
